From patent publication US20230081426A1, “COMPOUNDS AND METHODS FOR KRAS MODULATION AND INDICATIONS THEREFOR” (Plexxikon Inc., priority 2020, published 2023)

Experiments:
[1] = molecular target: T1, G12V-mutant human KRAS (amino acid residues 1-188) (Homo sapiens, UniProt P01116, G12V); experiment: KRAS Binding Competition Assay (AlphaScreen; biotinylated KRpep-2d analogue), G12V; conditions: geometric mean, read-out: KRAS GMean IC50 (uM) MUTATION: G12V
T1 construct: G12V-mutant human KRAS (amino acid residues 1-188) with FLAG tag was purified from E. coli; made in house; host or cells: E. coli
Protocol: Compound binding disrupts the interaction of KRpep-2d with KRAS, leading to a decrease in Alpha signal.
All assay components were prepared in 20 mM HEPES (pH 7.5), 100 mM NaCl, 5 mM MgCl2, 0.01% Tween-20, and 0.01% BSA. Biotinylated analogues of KRpep-2d were custom synthesized. The binding competition assays were performed using 10 nM of mutant KRAS and 10 nM of biotinylated KRpep-2d analogue. 19 μL of KRAS protein and 4 μL of biotinylated KRpep-2d were added to the wells of a 384-well plate containing 1 μL of various concentrations of test compound or DMSO vehicle. 16 wells containing KRAS, biotinylated KRpep-2d, and 5% DMSO served as high controls. 16 wells containing KRAS only and 5% DMSO served as low controls. Binding reactions were incubated for 1 hour at 25° C., then Anti-Flag Acceptor and Streptavidin Donor Alpha beads were added at a final concentration of 10 μg/mL for an additional hour at room temperature. Alpha signal was read out on a Perkin Elmer Envision HTS instrument. The percentage inhibition at individual compound concentrations relative to high and low controls was calculated. The data were analyzed by using nonlinear regression to generate IC50 values.

[2] = molecular target: T2, G12D-mutant human KRAS (amino acid residues 1-188) (Homo sapiens, UniProt P01116, G12D); experiment: KRAS Binding Disruption Assay (AlphaScreen; biotinylated KRpep-2d analogue or RAF1-RBD), G12D; conditions: KRAS G12D; geometric mean; read-out: KRAS GMean IC50 (uM) MUTATION: G12D
T2 construct: G12D or G12C-mutant human KRAS (amino acid residues 1-188) with FLAG tag; made in house; host or cells: E. coli
Method in brief: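 AlphaScreen readout: signal falls as compound displaces biotinylated KRpep-2d analogue or RAF1-RBD from mutant KRAS. Both partners at 5-20 nM, 1 h binding at 25° C, then 10 μg/mL Anti-Flag acceptor and streptavidin donor beads for 1 h. IC50 by nonlinear regression of % inhibition.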

IC50 [1] [µM] | IC50 [2] [µM] | Structure (SMILES)
100 to 1000 | 10 to 100 | CN1CCC[C@H]1COc1nc(N2C[C@H]3CC[C@@H](C2)N3)c2ccc(-c3nc(N)cc4cccnc34)c(F)c2n1 [P-0379, 8-(4-((1R,5S)-3,8-diazabicyclo[3.2.1]octan-3-yl)-8-fluoro-2-(((S)-1-methylpyrrolidin-2-yl)methoxy)quinazolin-7-yl)-1,7-naphthyridin-6-amine]
10 to 100 | 10 to 100 | CN1CCC[C@H]1COc1nc(N2[C@@H]3CC[C@H]2CN(C(=O)CCC2CCCNC2)C3)c2ccc(-c3cc(O)cc4ccccc34)cc2n1 (stereo partly drawn) [P-0192, 1-((1R,5S)-8-(7-(3-hydroxynaphthalen-1-yl)-2-(((S)-1-methylpyrrolidin-2-yl)methoxy)quinazolin-4-yl)-3,8-diazabicyclo[3.2.1]octan-3-yl)-3-(piperidin-3-yl)propan-1-one]
10 to 100 | 10 to 100 | CN1CCC[C@H]1COc1nc(N2[C@@H]3CC[C@H]2CN(C(=O)c2cc[nH]n2)C3)c2ccc(-c3cc(O)cc4ccccc34)cc2n1 [P-0273, ((1R,5S)-8-(7-(3-hydroxynaphthalen-1-yl)-2-(((S)-1-methylpyrrolidin-2-yl)methoxy)quinazolin-4-yl)-3,8-diazabicyclo[3.2.1]octan-3-yl)(1H-pyrazol-3-yl)methanone]
10 to 100 | 0.0001 to 10 | CN1CCC[C@H]1COc1nc(N2C[C@H]3CC[C@@H](C2)N3)c2cc(F)c(N3CCNc4ccccc43)c(F)c2n1 [P-0305, 4-((1R,5S)-3,8-diazabicyclo[3.2.1]octan-3-yl)-7-(3,4-dihydroquinoxalin-1(2H)-yl)-6,8-difluoro-2-(((S)-1-methylpyrrolidin-2-yl)methoxy)quinazoline]
10 to 100 | 10 to 100 | CN1CCC[C@H]1COc1nc(N2C[C@H]3CC[C@@H](C2)N3)c2ccc(Nc3n[nH]c4ccccc34)cc2n1 [P-0289, 4-((1R,5S)-3,8-diazabicyclo[3.2.1]octan-3-yl)-N-(1H-indazol-3-yl)-2-(((S)-1-methylpyrrolidin-2-yl)methoxy)quinazolin-7-amine]
10 to 100 | 10 to 100 | Oc1cc(-c2ccc3c(N4[C@@H]5CC[C@H]4CNC5)nc(Nc4cccnc4)nc3c2)c2ccccc2c1 [P-0322, 4-(4-((1R,5S)-3,8-diazabicyclo[3.2.1]octan-8-yl)-2-(pyridin-3-ylamino)quinazolin-7-yl)naphthalen-2-ol]
0.0001 to 10 | 0.0001 to 10 | CN(C)c1cccc(/C=C/c2nc(N3C[C@H]4CC[C@@H](C3)N4)c3cc(Cl)c(-c4c(O)cccc4F)c(F)c3n2)c1 [P-0362, 2-(4-((1R,5S)-3,8-diazabicyclo[3.2.1]octan-3-yl)-6-chloro-2-((E)-3-(dimethylamino)styryl)-8-fluoroquinazolin-7-yl)-3-fluorophenol]
0.0001 to 10 | 0.0001 to 10 | CN(C)c1cccc(CCc2nc(N3C[C@H]4CC[C@@H](C3)N4)c3cc(Cl)c(-c4c(O)cccc4F)c(F)c3n2)c1 [P-0363, 2-(4-((1R,5S)-3,8-diazabicyclo[3.2.1]octan-3-yl)-6-chloro-2-(3-(dimethylamino)phenethyl)-8-fluoroquinazolin-7-yl)-3-fluorophenol]
0.0001 to 10 | 0.0001 to 10 | CN1CCC[C@H]1COc1nc(N2C[C@H]3CC[C@@H](C2)N3S(=O)(=O)N2CCOC2=O)c2ccc(-c3cc(O)cc4ccccc34)c(F)c2n1 [P-0377, 3-(((1R,5S)-3-(8-fluoro-7-(3-hydroxynaphthalen-1-yl)-2-(((S)-1-methylpyrrolidin-2-yl)methoxy)quinazolin-4-yl)-3,8-diazabicyclo[3.2.1]octan-8-yl)sulfonyl)oxazolidin-2-one]
10 to 100 | 0.0001 to 10 | Fc1cc2c(N3C[C@H]4CC[C@@H](C3)N4)nc(OCC34CCCN3CCC4)nc2c(F)c1-c1c[nH]c2ccccc12 [P-0372, 4-((1R,5S)-3,8-diazabicyclo[3.2.1]octan-3-yl)-6,8-difluoro-7-(1H-indol-3-yl)-2-((tetrahydro-1H-pyrrolizin-7a(5H)-yl)methoxy)quinazoline]
100 to 1000 | 0.0001 to 10 | Cc1ccc2[nH]ncc2c1-c1c(Cl)cc2c(N3C[C@H]4CC[C@@H](C3)N4)nc(OC[C@@H]3CCCN3C)nc2c1F [P-0028, 4-((1R,5S)-3,8-diazabicyclo[3.2.1]octan-3-yl)-6-chloro-8-fluoro-7-(5-methyl-1H-indazol-4-yl)-2-(((S)-1-methylpyrrolidin-2-yl)methoxy)quinazoline]
10 to 100 | 0.0001 to 10 | CN1CCC[C@H]1COc1nc(N2[C@@H]3CC[C@H]2CNC3)c2ccc(-c3c(O)ccc4ccccc34)cc2n1 [P-0259, 1-(4-((1R,5S)-3,8-diazabicyclo[3.2.1]octan-8-yl)-2-(((S)-1-methylpyrrolidin-2-yl)methoxy)quinazolin-7-yl)naphthalen-2-ol]
10 to 100 | 10 to 100 | CN1CCC[C@H]1COc1nc(N2C[C@H]3CC[C@@H](C2)N3)c2ccc(-c3c[nH]c4ccccc34)cc2n1 [P-0254, 4-((1R,5S)-3,8-diazabicyclo[3.2.1]octan-3-yl)-7-(1H-indol-3-yl)-2-(((S)-1-methylpyrrolidin-2-yl)methoxy)quinazoline]
10 to 100 | 10 to 100 | CN1CCC[C@H]1COc1nc(N2[C@@H]3CC[C@H]2CN(C(=O)NC2CCN(C4CCCCC4)C2)C3)c2ccc(-c3cc(O)cc4ccccc34)cc2n1 (stereo partly drawn) [P-0266, (1R,5S)-N-(1-cyclohexylpyrrolidin-3-yl)-8-(7-(3-hydroxynaphthalen-1-yl)-2-(((S)-1-methylpyrrolidin-2-yl)methoxy)quinazolin-4-yl)-3,8-diazabicyclo[3.2.1]octane-3-carboxamide]
0.0001 to 10 | 0.0001 to 10 | CN1CCC[C@H]1COc1nc(N2C[C@H]3CC[C@@H](C2)N3C(=O)CO)c2ccc(-c3cc(O)cc4ccccc34)c(F)c2n1 [P-0104, 1-((1R,5S)-3-(8-fluoro-7-(3-hydroxynaphthalen-1-yl)-2-(((S)-1-methylpyrrolidin-2-yl)methoxy)quinazolin-4-yl)-3,8-diazabicyclo[3.2.1]octan-8-yl)-2-hydroxyethan-1-one]
0.0001 to 10 | 0.0001 to 10 | CCc1cccc2[nH]cc(-c3ccc4c(N5C[C@H]6CC[C@@H](C5)N6)nc(OC[C@@]56CCCN5C[C@H](F)C6)nc4c3F)c12 [P-0511, 4-((1R,5S)-3,8-diazabicyclo[3.2.1]octan-3-yl)-7-(4-ethyl-1H-indol-3-yl)-8-fluoro-2-(((2R,7aS)-2-fluorotetrahydro-1H-pyrrolizin-7a(5H)-yl)methoxy)quinazoline]
100 to 1000 | 0.0001 to 10 | CN1CCC[C@H]1COc1nc(N2C[C@H]3CC[C@@H](C2)N3CC(=O)N2CCOCC2)c2ccc(-c3cc(O)cc4ccccc34)c(F)c2n1 [P-0428, 2-((1R,5S)-3-(8-fluoro-7-(3-hydroxynaphthalen-1-yl)-2-(((S)-1-methylpyrrolidin-2-yl)methoxy)quinazolin-4-yl)-3,8-diazabicyclo[3.2.1]octan-8-yl)-1-morpholinoethan-1-one]
10 to 100 | 10 to 100 | CN1CCC[C@H]1COc1nc(N2[C@@H]3CC[C@H]2CNC3)c2ccc(-c3cccc4ccccc34)cc2n1 [P-0257, 4-((1R,5S)-3,8-diazabicyclo[3.2.1]octan-8-yl)-2-(((S)-1-methylpyrrolidin-2-yl)methoxy)-7-(naphthalen-1-yl)quinazoline]
0.0001 to 10 | 0.0001 to 10 | C[C@H](O)C(=O)N1[C@@H]2CC[C@H]1CN(c1nc(OC[C@@H]3CCCN3C)nc3c(F)c(-c4cc(O)cc5ccccc45)ccc13)C2 [P-0394, (S)-1-((1R,5S)-3-(8-fluoro-7-(3-hydroxynaphthalen-1-yl)-2-(((S)-1-methylpyrrolidin-2-yl)methoxy)quinazolin-4-yl)-3,8-diazabicyclo[3.2.1]octan-8-yl)-2-hydroxypropan-1-one]
10 to 100 | 10 to 100 | CN1CCC[C@H]1COc1nc(N2[C@@H]3CC[C@H]2CN(c2cnccn2)C3)c2ccc(-c3cc(O)cc4ccccc34)cc2n1 [P-0268, 4-(2-(((S)-1-methylpyrrolidin-2-yl)methoxy)-4-((1R,5S)-3-(pyrazin-2-yl)-3,8-diazabicyclo[3.2.1]octan-8-yl)quinazolin-7-yl)naphthalen-2-ol]
10 to 100 | 0.0001 to 10 | Oc1cc(-c2ccc3c(C4=C[C@@H]5CC[C@H](C4)N5)nc(OCC45CCCN4CCC5)nc3c2)c2ccccc2c1 [P-0054, 4-(4-((1S,5R)-8-azabicyclo[3.2.1]oct-2-en-3-yl)-2-((tetrahydro-1H-pyrrolizin-7a(5H)-yl)methoxy)quinazolin-7-yl)naphthalen-2-ol]
